BindingDB's records for PubMed 37722288 (Southwest Jiaotong University)
One block for each molecule: values may come before it.

What was measured:
[1] = molecular target: Glycogen synthase kinase-3 alpha (Homo sapiens, UniProt P49840); assay: Inhibition of human recombinant GSK3alpha
[2] = molecular target: Cyclin-dependent kinase 9/cyclin T1 (Homo sapiens); assay: Inhibition of CDK9/cyclin T1 (unknown origin)
[3] = molecular target: Glycogen synthase kinase-3 beta (Homo sapiens) (UniProt P49841); assay: Inhibition of human recombinant GSK3beta
Glycogen synthase kinase-3 beta (Homo sapiens), sequence (P49841 whole entry, looked up): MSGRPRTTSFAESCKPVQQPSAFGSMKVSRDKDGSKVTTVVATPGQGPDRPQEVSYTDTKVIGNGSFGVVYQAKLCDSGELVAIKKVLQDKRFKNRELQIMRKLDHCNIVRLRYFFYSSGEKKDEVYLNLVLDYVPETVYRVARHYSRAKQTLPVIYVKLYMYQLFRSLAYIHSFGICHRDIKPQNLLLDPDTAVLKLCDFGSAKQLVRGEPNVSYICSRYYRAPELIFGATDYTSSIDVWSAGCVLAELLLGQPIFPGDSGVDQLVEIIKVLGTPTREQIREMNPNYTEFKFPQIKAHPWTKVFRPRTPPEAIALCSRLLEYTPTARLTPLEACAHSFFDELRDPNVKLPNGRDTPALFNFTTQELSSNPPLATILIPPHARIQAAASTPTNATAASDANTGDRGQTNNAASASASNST

Glycogen synthase kinase-3 alpha, sequence (P49840 whole entry): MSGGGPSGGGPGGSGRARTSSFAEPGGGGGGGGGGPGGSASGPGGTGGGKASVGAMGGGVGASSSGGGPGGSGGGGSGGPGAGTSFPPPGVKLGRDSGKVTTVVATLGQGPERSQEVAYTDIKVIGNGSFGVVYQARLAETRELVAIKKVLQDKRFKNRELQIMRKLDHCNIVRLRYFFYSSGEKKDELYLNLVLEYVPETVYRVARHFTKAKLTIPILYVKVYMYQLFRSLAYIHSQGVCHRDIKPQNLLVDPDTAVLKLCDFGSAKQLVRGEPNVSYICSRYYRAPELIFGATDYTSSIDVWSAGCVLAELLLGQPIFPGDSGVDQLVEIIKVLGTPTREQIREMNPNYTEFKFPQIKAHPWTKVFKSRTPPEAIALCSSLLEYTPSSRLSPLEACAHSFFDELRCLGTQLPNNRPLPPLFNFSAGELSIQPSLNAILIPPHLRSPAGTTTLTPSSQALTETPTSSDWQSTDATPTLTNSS

- IC50 [1]: 2.3 µM
SMILES: COc1ncccc1C(=O)Nc1cc(S(C)(=O)=O)ccc1N1CCC(Oc2ccc(F)cc2F)CC1 [Name not given]

- IC50 [2]: 5.71 µM
SMILES: COc1cc(CC(=O)Nc2cc(C3CCC3)[nH]n2)cc(OC)c1OC

- IC50 [3]: 9.1 µM
SMILES: CCN1CCC(NC(=O)c2c(C)noc2C(C)C)CC1 [Name not given]
